Laboratory results reported in patent US20260374773A1, “MULTI-CYCLIC IRAK AND FLT3 INHIBITING COMPOUNDS AND USES THEREOF” (CHILDREN'S HOSPITAL MEDICAL CENTER, priority 2022, published 2026).

What was measured:
IRAK1 = IRAK1 (Homo sapiens, UniProt P51617); experiment: RBC HotSpot kinase inhibition assay, IRAK1; type: biochemical; details: Table 17; isolated kinase, 33P-ATP, 2 h
Description: (§1) This assay uses the isolated kinase enzyme. This assay is very useful for determining competition of the inhibitor for ATP and/or substrates and for measuring the kinetics of enzyme inhibition. […] Unlike kinase binding assays that measure competition for ATP, the HotSpot Kinase Assay is a functional assay that measures catalytic activity; as such it measures relative functional potency regardless of the mechanism of enzyme inhibition. This assay uses the form of the various enzymes that are easiest to express, which may not necessarily be the form of the enzyme that exist in the cell. (Sometimes the carboxy terminus has been truncated to aid in expression, or, if it is a receptor kinase, the enzyme itself is isolated from the other parts of the receptor that are involved in regulating kinase activity.)
(§2) The reagent used was as follows: Base Reaction buffer; 20 mM Hepes (pH 7.5), 10 mM MgCl2, 1 mM EGTA, 0.01% Brij35, 0.02 mg/ml BSA, 0.1 mM Na3VO4, 2 mM DTT, 1% DMSO. Required cofactors were added individually to each kinase reaction.
(§3) The reaction procedure was as follows: • 1) Substrates were prepared in freshly prepared Reaction Buffer. • 2) Any required cofactors were delivered to the substrate solution above. • 3) Kinase was delivered into the substrate solution and gently mixed. • 4) Compounds were delivered in 100% DMSO into the kinase reaction mixture by Acoustic technology (Echo550; nanoliter range), followed by incubation for 20 min at room temp. • 5) ^33P-ATP was delivered into the reaction mixture to initiate the reaction. • 6) The mixture was incubated for 2 hours at room temperature. • 7) Kinase activity was detected by P81 filter-binding method.
as §1, with “Although not wishing to be limited by theory, it is believed that sometimes” for “(Sometimes”, “activity.” for “activity.)”
(§4) The reagent used was as follows: Base Reaction buffer; 20 mM Hepes (pH 7.5), 10 mM MgCl2, 1 mM EGTA, 0.01% Brij35, 0.02 mg/ml BSA, 0.1 mM Na3 VO4, 2 mM DTT, 1% DMSO.
(§5) Required cofactors were added individually to each kinase reaction.
as §3, with “33P-ATP” for “^33P-ATP”

IRAK4 = target: T1, IRAK4 (Homo sapiens, UniProt Q9NWZ3); experiment: RBC HotSpot kinase inhibition assay, IRAK4; type: biochemical; details: Table 17; isolated kinase, 33P-ATP, 2 h
T1 sequence (Q9NWZ3 1-460): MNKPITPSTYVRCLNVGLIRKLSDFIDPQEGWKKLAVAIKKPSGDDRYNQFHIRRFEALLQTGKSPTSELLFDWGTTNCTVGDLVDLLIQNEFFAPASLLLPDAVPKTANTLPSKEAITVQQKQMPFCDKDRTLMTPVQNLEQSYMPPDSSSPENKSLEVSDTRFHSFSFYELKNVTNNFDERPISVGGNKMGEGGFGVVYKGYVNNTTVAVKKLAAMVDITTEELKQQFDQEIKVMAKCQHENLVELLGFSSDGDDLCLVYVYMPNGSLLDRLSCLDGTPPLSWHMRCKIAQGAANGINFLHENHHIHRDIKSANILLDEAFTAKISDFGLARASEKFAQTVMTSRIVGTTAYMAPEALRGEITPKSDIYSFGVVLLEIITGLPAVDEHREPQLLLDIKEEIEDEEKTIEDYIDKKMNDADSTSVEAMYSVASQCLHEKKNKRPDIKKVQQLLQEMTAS
Description: as §1, §2, §3
as §1, with “Although not wishing to be limited by theory, it is believed that sometimes” for “(Sometimes”, “activity.” for “activity.)”
as §4, §5
as §3, with “33P-ATP” for “^33P-ATP”

FLT3 = target: T2, FLT3 (Homo sapiens, UniProt P36888); experiment: RBC HotSpot kinase inhibition assay, FLT3; type: biochemical; details: Table 17; isolated kinase, 33P-ATP, 2 h
T2 sequence (P36888 27-993): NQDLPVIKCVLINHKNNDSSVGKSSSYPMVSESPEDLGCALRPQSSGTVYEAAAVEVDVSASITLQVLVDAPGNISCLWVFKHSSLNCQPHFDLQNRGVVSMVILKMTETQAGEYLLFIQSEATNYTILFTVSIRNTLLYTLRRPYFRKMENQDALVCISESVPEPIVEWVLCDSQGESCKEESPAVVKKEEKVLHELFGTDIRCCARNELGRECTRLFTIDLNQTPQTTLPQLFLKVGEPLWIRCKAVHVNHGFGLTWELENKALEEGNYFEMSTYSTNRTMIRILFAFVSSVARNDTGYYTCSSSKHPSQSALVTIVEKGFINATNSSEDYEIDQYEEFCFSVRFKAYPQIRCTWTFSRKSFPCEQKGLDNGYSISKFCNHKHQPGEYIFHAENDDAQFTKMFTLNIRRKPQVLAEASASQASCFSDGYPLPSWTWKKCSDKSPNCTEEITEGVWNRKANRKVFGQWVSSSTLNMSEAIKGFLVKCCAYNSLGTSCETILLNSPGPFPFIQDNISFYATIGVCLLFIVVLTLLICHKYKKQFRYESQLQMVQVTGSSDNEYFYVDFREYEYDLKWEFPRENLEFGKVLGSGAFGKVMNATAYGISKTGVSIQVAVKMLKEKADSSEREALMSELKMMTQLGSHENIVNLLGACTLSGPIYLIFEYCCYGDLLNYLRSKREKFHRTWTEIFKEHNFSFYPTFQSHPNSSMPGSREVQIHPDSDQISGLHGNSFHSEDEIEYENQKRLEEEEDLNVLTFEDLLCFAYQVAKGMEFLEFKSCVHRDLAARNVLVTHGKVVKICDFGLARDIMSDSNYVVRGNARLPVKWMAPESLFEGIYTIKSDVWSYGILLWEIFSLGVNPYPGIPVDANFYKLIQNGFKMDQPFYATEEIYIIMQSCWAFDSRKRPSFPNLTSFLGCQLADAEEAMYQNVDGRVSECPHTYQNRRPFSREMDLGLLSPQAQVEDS
Description: as §1, §2, §3
as §1, with “Although not wishing to be limited by theory, it is believed that sometimes” for “(Sometimes”, “activity.” for “activity.)”
as §4, §5
as §3, with “33P-ATP” for “^33P-ATP”

MOLM14 D835Y cells = experiment: MOLM14 D835Y cell viability (Cell Titer Glo); type: cell-based; details: Homo sapiens, MOLM-14, Table 22, 48 h
Method: (§6) Both cell lines have activated FLT3 receptors, each of which carry additional resistance mutations in the kinase domain (D835Y and F691L, respectively).
(§7) MOLM14 D835Y and MOLM14 F691L cells were grown in RPMI-1640 media supplemented with 20% fetal bovine serum (FBS). For viability/cytotoxicity assessments, cells were seeded into 1536-well white polystyrene tissue culture-treated Greiner plates using a Multidrop Combi dispenser (ThermoFisher), in final volume 5 μL of growth media per well, at a density of 1000 cells per well. After cell addition, 23 nL of test compound were transferred into individual wells (22 doses tested for each test compound, with a 1:2 dilution series starting at 10 μM) via a 1536 pin-tool. Bortezomib (final concentration 2.3 μM) was used as a positive control for cell cytotoxicity. Plates were incubated for 48 hours at standard incubator conditions covered by a stainless steel gasketed lid to prevent evaporation. 48 hours post compound addition, 3 μL of Cell Titer Glo (Promega) were added to each well and plates were incubated at room temperature for 15 minutes with the stainless-steel lid in place. Luminescence readings were taken using a Viewlux imager (PerkinElmer) with a 2 second exposure time per plate.
This cell line has activated FLT3 receptors, which carries an additional resistance mutation in the kinase domain at D835Y.
as §7, with “D835Y” for “D835Y and MOLM14 F691L”, “mL” for “μL”, “mM)” for “μM)”

MOLM14 F691L cells = experiment: MOLM14 F691L cell viability (Cell Titer Glo); type: cell-based; details: Homo sapiens, MOLM-14, Table 22, 48 h
Method: as §6, §7

NF-κB [1] = experiment: NF-κB SEAP reporter assay in THP-1-Blue NF-κB cells, Pam3CSK4 stimulated; type: cell-based; details: Table 21; THP-1-Blue cells, 1 ng/ml Pam3CSK4, 24 h; read-out: NF-κB Pam3SCK4 IC50
Method: (§8) THP-1-Blue NF-κB cells (InvivoGen) carrying a stable integrated NF-κB-inducible secreted embryonic alkaline phosphatase (SEAP) reporter construct were plated at a concentration of 1×10^5 cells per well. The cells were stimulated with Pam3CSK4 (1 ng/ml) or hIL1B (1 ng/ml). After 10-20 minutes, the cells were then treated with vehicle (DMSO) or serial dilutions of the test compounds (10 doses tested for each test compound, with a […] starting at 1 μM or 3 μM) with a final volume of 200 μL for 24 hours at 37 °C. After 24 hours, the cells were centrifuged and 20 μL supernatant was incubated with 180 μL QUANTI-Blue reagent at 37 °C for 30-60 minutes. The levels of NF-κB-induced was measured in a microplate reader at 620 nm.
as §8, with “1 mM” for “1 μM”, “3 mM)” for “3 μM)”, “200 mL” for “200 μL”, “20 mL” for “20 μL”, “180 mL” for “180 μL”, “NF-κB-induced gene expression were” for “NF-κB-induced was”

NF-κB [2] = experiment: NF-κB SEAP reporter assay in THP-1-Blue NF-κB cells, hIL1B stimulated; type: cell-based; details: Table 21; THP-1-Blue cells, 1 ng/ml hIL1B, 24 h; read-out: NF-κB IL1B IC50
Method: as §8
as §8, with “1 mM” for “1 μM”, “3 mM)” for “3 μM)”, “200 mL” for “200 μL”, “20 mL” for “20 μL”, “180 mL” for “180 μL”, “NF-κB-induced gene expression were” for “NF-κB-induced was”

Chain of IRAK1 (P51617 whole entry, the tested form may be a part): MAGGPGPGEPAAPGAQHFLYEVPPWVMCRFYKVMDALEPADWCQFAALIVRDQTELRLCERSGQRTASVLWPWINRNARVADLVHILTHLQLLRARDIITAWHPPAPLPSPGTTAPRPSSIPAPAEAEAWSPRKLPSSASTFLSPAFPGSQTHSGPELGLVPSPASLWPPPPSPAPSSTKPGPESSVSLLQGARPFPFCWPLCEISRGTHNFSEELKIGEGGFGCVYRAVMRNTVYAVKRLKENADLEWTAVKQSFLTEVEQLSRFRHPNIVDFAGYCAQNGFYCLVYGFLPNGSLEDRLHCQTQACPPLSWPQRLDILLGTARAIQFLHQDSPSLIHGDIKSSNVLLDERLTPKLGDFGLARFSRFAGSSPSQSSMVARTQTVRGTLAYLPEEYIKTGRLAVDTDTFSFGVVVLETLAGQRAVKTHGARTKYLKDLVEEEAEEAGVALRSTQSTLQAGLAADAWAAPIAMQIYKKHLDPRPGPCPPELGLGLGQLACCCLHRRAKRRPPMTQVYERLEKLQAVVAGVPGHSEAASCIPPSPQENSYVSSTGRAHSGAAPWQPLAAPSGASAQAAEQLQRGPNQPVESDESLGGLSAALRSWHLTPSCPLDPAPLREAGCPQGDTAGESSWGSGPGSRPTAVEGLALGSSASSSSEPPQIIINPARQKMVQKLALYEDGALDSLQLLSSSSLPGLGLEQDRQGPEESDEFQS

**Q.** `COc1cn2ncc(-c3ccnc(N[C@@H]4CCCNC4)n3)c2nc1C(C)(C)O` [Compound 2a, (R)-2-(6-methoxy-3-(2-(piperidin-3-ylamino)pyrimidin-4-yl)pyrazolo[1,5-a]pyrimidin-5-yl)propan-2-ol] was tested. Which IC50 (IRAK1) did it give?
**A.** The IC50 was 365 nM.

**Q.** And the IC50 (IRAK4)?
**A.** The IC50 was 127 nM.

**Q.** What about the IC50 (FLT3) of the same compound?
**A.** The IC50 was 8 nM.

**Q.** What about the IC50 (MOLM14 D835Y cells) of the same compound?
**A.** The IC50 was 159 nM.

**Q.** What about the IC50 (MOLM14 F691L cells) of the same compound?
**A.** Its IC50 is 1790 nM.

**Q.** For `COc1cn2ncc(-c3ccnc(N[C@@H]4CCCNC4)n3)c2nc1C1CC1` [Compound 9a, (R)-4-(5-cyclopropyl-6-methoxypyrazolo[1,5-a]pyrimidin-3-yl)-N-(piperidin-3-yl)pyrimidin-2-amine], which IC50 (IRAK1) is on record?
**A.** The IC50 was 44 nM.

**Q.** And the IC50 (IRAK4)?
**A.** The IC50 was 4 nM.

**Q.** And the IC50 (FLT3)?
**A.** Its IC50 is under 0.5 nM.

**Q.** And the IC50 (NF-κB [1])?
**A.** Its IC50 is 173 nM.

**Q.** And the IC50 (NF-κB [2])?
**A.** The IC50 was 128 nM.
